Results from the METLIN SMRT retention time set (Domingo-Almenara et al. 2019).

assay: gradient 5% acetonitrile 3 min, to 50% in 2 min, to 85% in 15 min, held 3 min, 100 µL/min; settings: column: Zorbax Extend-C18 2.1 x 50 mm; eluents: water / acetonitrile, 0.1% formic acid
How it was run: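 Values are retention times taken from adduct peaks that software picked and an analyst inspected. The pure standards were run as mixtures of ~100 molecules on HPLC linked to a quadrupole time-of-flight mass spectrometer, in positive and negative ionization mode. A Zorbax Extend-C18 column (2.1 × 50 mm, 1.8 μm) was used at 100 μL/min with water and acetonitrile, each including 0.1% formic acid.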

| Structure (SMILES) | RP-LC retention time [s] |
| --- | --- |
| O=C(CSc1nnc(-c2ccco2)o1)N1CCCc2ccccc21 | 887 |
| CCN(CC)S(=O)(=O)c1cccc(-c2nnc(-c3ccc(OC)cc3)o2)c1 | 1020 |
| Cc1ccsc1C(=O)NCc1ccc2c(c1)ncn2C(C)C | 616 |
| Cc1ccc(C2Cn3nnc(-c4nc(C5CCCCC5)no4)c3CO2)c(C)c1 (stereo not given) | 1390 |
| COc1cccc(CN2CCc3nc(N4CCCC4)ncc3C2)c1 | 600 |
| O=S(=O)(c1cccc2cccnc12)N1CCc2nc(-c3ccc(F)cc3)ncc2C1 | 1000 |
| O=S(=O)(c1ccc(-c2cnc(C3CCCC3)o2)s1)N1CCN(c2ncccn2)CC1 | 1120 |
| Cn1cc(-c2nc(C(=O)Nc3ccc(C#N)cc3)cs2)c2cccnc21 | 958 |
| CCn1c(N2CCN(C(=O)Nc3cc(OC)cc(OC)c3)CC2)nc2ccccc21 | 660 |
| CC(C(=O)NCCSc1nncn1C)n1nnc2ccccc2c1=O (stereo not given) | 578 |
| Cc1nc2ccn(Cc3ccco3)c(=O)c2cc1C(=O)NCCC(C)C | 776 |
| O=C(Cc1cccs1)N1CCN(C(=O)c2cc3ccccc3[nH]2)CC1 | 767 |
| CCCNc1cc(N2CCC(CCC(=O)NCc3ccc(F)c(Cl)c3)CC2)ncn1 | 713 |
| CC1(C(=O)NCc2ccc(F)cc2)CN(S(C)(=O)=O)CC(=O)N1Cc1ccccc1Cl (stereo not given) | 848 |
| CSc1ccccc1NC(=O)Cn1cnc(-c2cccs2)cc1=O | 749 |
| O=C(CCc1ccc2nc(-c3ccccc3)[nH]c2c1)NCc1cccnc1 | 555 |
| CNC(=O)Nc1ccc(C2(C(=O)N3CCN(c4ccccc4)CC3)CCC2)cc1 | 754 |
| COc1ccc(Cl)cc1NC(=O)Cn1c(N2CCOCC2)nc(C)cc1=O | 772 |
| Cn1cc(S(=O)(=O)N2CCCCC2)cc1C(=O)N1CCc2ccccc2C1 | 938 |
| c1cc(OCc2ccc(CC3CCN(C4CCOCC4)CC3)cc2)ccn1 | 548 |
| COc1cccc(-c2noc(C3CCCN3C(=O)Nc3cc(Cl)ccc3OC)n2)c1 (stereo not given) | 1130 |
| CCOc1ccc(-c2cc(=O)n(CCCC(=O)Nc3cccc(SC)c3)cn2)cc1 | 847 |
| COc1ccccc1/C=C/c1nc(-c2cccc(-c3ccn[nH]3)c2)no1 | 976 |

| Structure (SMILES) | RP-LC retention time [s] |
| --- | --- |
| O=C(NCc1cccs1)c1cccn1Cc1noc(-c2ccc(Cl)cc2)n1 | 1080 |
| CC(C)c1noc(-c2ccnc(-n3cnc(C(=O)N4CCSCC4)c3)c2)n1 | 863 |
| Cc1cc2c(cc(C(=O)NCCCc3ccccc3)n2Cc2ccc(Cl)cc2)o1 | 1270 |
| CCOc1ccc(NC(=O)N2CCN(c3nc4ccccc4n3C)CC2)cc1 | 649 |
| Cc1noc(C)c1-c1ccc(S(=O)(=O)Nc2cccc(Cl)c2)cc1 | 966 |
| COc1cccc(-c2cc3n(n2)CCCN(C(=O)c2ccc(OC)c(OC)c2)C3)c1 | 654 |
| CC(Cc1ccco1)NC(=O)c1ccc2c(c1)nc1n2CCCCC1 (stereo not given) | 620 |
| COCCCNC(=O)C1CCN(S(C)(=O)=O)c2cc(Cl)ccc2O1 (stereo not given) | 730 |
| O=C(NC1CCCCC1)C1CCN(c2cnn(Cc3ccccc3)c(=O)c2)CC1 | 793 |
| NC1CC1c1ccccc1 (stereo not given) | 621 |
| CCn1c(CCc2ccccc2NS(=O)(=O)c2ccc(F)cc2F)nc2ccccc21 | 755 |
| CC1CCN(c2cc(-n3ccnc3)ncn2)CC1 | 651 |
| CCN1CCC2(CC1)N=C(c1ccc(Br)cc1)CC(c1cccc(OC)c1O)N2 (stereo not given) | 618 |
| O=C(Cn1cccc1-c1nc(-c2ccc(Cl)cc2)cs1)N1CCN(c2ccccn2)CC1 | 772 |
| Cc1ccc(CNC(=O)Cn2c(C(C)C)nc3c(c2=O)CN(Cc2ccccc2)CC3)cc1 | 694 |
| Cn1nc(C(=O)NC2CCN(c3cc(-c4ccccc4)[nH]n3)CC2)c2ccccc21 | 792 |
| Cn1ccc2cc(S(=O)(=O)N3CCC(C(=O)NC4CCN(Cc5ccccc5)CC4)CC3)ccc21 | 666 |
| CC1Oc2ccc(-c3csc(NS(C)(=O)=O)n3)cc2NC1=O (stereo not given) | 609 |
| Cc1cc2[nH]c(C(=O)Nc3cc(F)c(F)cc3F)c(CN(C)C)c2s1 | 664 |
| COc1ccc(NC(=O)C2CCN(c3cnc4nccnc4c3)CC2)cc1Cl | 712 |
| CCOC(=O)c1cccc(NS(=O)(=O)c2cc(-c3c(C)noc3NC(C)=O)ccc2OC)c1 | 781 |
| CCc1noc(-c2cnc3nc(C)ccc3c2NCc2ccccc2OC)n1 | 724 |
